The values that follow come from patent US20240368150A1 (Hoffmann-La Roche Inc., priority 2021, published 2024).

Like-named read-outs stand apart in the source and are kept apart here. Where only a bound is given, the exact number is not on record here.

The subject of test [1] is primary human T-cells. Nature of the test: Proliferation assay after 5 days (CellTiter-Glo, CD3 stimulation; PBS counter screen). In kind it is cell-based. The settings on record: CD3 stimulation; for Emax / Emax proliferation (% activation): 5 days, normalized to reference compound A1 as stimulator control = 100%, DMSO neutral control; for Emax: read-out: Emax proliferation (% activation); for EC50: primary human T-cells, CellTiter-Glo after 5 days, EC50 of fitted sigmoidal curve, read-out: Tcell Proliferation CD3 EC50. On the procedure:
Compounds are then added (see next section) to medium only plates.
Cells are assessed for proliferation 5 days later by measuring […] using CellTiterGlo (Promega).
After 5 days, for detection of ATP which is directly proportional to the number of cells present per well, the CellTiter-Glo® 2.0 Reagent is used. After visual control for toxicity or precipitations of the tested compounds, the plates are equilibrated to room temperature for 45 minutes. CellTiter-Glo® 2.0 Reagent is equilibrated to room temperature as well. After equilibration, an equal amount of CellTiter-Glo reagent is added to the cells (80 μl/well) with an electronic multichannel pipette. Plates are placed on a rocking platform for 15 minutes at room temperature. After incubation, the bottom of the plates is sealed with backing tape. Luminescence is measured with PHERAstar FSX (interval time 0.5 sec, gain 3000, focal height 15 mm) and exported as CSV file for analysis in Genedata screener.
Compounds which activate unstimulated cells (see IL2 measurements) or compounds which negatively affected viability were flagged.
(In general: Cellular ATP, detected with luciferase, serves as a proxy for viable cell number.)

Test [2] relates to primary human T-cells.

As to `COC(=O)N1CC(n2nnc(-c3cc4c(cc3F)S(=O)(=O)C[C@H](N)C(=O)N4Cc3ccc(Cl)cc3)n2)CC(F)(F)C1` (stereo partly drawn) [Example 25, methyl 3,3-difluoro-5-[5-[(3R)-3-amino-5-[(4-chlorophenyl)methyl]-8-fluoro-1,1,4-trioxo-2,3-dihydro-1λ^6,5-benzothiazepin-7-yl]tetrazol-2-yl]piperidine-1-carboxylate], in the test with primary human T-cells [1] (Homo sapiens, T-cell, 120 h), the Emax turned out to be 132% and the EC50 worked out at 249 nM. The same compound returned an EC50 in the test with primary human T-cells [2] of 1320 nM.
On to `CC(=O)N[C@H]1CS(=O)(=O)c2cc(F)c(-c3nnn(C4CNCC(F)(F)C4)n3)cc2N(Cc2ccc(Cl)cc2)C1=O` (stereo partly drawn) [Example 26, N-[(3R)-5-[(4-chlorophenyl)methyl]-7-[2-(5,5-difluoro-3-piperidyl)tetrazol-5-yl]-8-fluoro-1,1,4-trioxo-2,3-dihydro-1λ^6,5-benzothiazepin-3-yl]acetamide], for which, in the test with primary human T-cells [1] (Homo sapiens, T-cell, 120 h), the Emax was found to be 64% and the EC50 was determined as 6390 nM. In the test with primary human T-cells [2], this compound registered an EC50 above 10000 nM.
For `CC(C)(O)Cn1nnc(-c2cc3c(cc2F)S(=O)(=O)C[C@H](N)C(=O)N3Cc2ccc(Cl)cc2)n1` [Example 27, (3R)-3-amino-5-[(4-chlorophenyl)methyl]-8-fluoro-7-[2-(2-hydroxy-2-methyl-propyl)tetrazol-5-yl]-1,1-dioxo-2,3-dihydro-1λ^6,5-benzothiazepin-4-one], in that order: 103%, 2050 nM and 1230 nM.
The matching figures for `CC(C)(C)n1nnc(-c2cc3c(cc2F)S(=O)(=O)C[C@H](N)C(=O)N3Cc2ccc(OC(F)(F)F)cc2)n1` [Example 30, (3R)-3-amino-7-(2-tert-butyltetrazol-5-yl)-8-fluoro-1,1-dioxo-5-[[4-(trifluoromethoxy)phenyl]methyl]-2,3-dihydro-1λ^6,5-benzothiazepin-4-one]: 117%, 43.5 nM and 39.8 nM.
Regarding `CC(C)(C)n1nnc(-c2ccc3c(c2)N(Cc2ccc(OC(F)(F)F)cc2)C(=O)[C@@H](N)CS3(=O)=O)n1` [Example 31, (3R)-3-amino-7-(2-tert-butyltetrazol-5-yl)-1,1-dioxo-5-[[4-(trifluoromethoxy)phenyl]methyl]-2,3-dihydro-1λ^6,5-benzothiazepin-4-one], in the test with primary human T-cells [1] (Homo sapiens, T-cell, 120 h), the Emax was 97%. The EC50 was 276 nM in the test with primary human T-cells [1] (Homo sapiens, T-cell, 120 h) and 344 nM in the test on primary human T-cells [2].
The matching figures for `CC(C)(C)n1nnc(-c2cc3c(cc2F)S(=O)(=O)C[C@H](N)C(=O)N3Cc2ccc(F)cc2)n1` [Example 32]: 101%, 808 nM and 7630 nM.
As to `CC(C)(C)n1nnc(-c2cc3c(cc2F)S(=O)(=O)C[C@H](N)C(=O)N3Cc2ccc(OCC3CCOCC3)cc2)n1` [Example 33, (3R)-3-amino-7-(2-tert-butyltetrazol-5-yl)-8-fluoro-1,1-dioxo-5-[[4-(tetrahydropyran-4-ylmethoxy)phenyl]methyl]-2,3-dihydro-1λ^6,5-benzothiazepin-4-one], in the test on primary human T-cells [1] (Homo sapiens, T-cell, 120 h), the Emax came out at 104% and the EC50 worked out at 1900 nM. The EC50 with primary human T-cells [2] was found to be 5280 nM.
For `CC(C)(C)n1nnc(-c2cc3c(cc2F)[S+]([O-])C[C@H](N)C(=O)N3Cc2ccc(Cl)cc2)n1` (stereo partly drawn) [Example 34, (3R)-3-amino-7-(2-tert-butyltetrazol-5-yl)-5-[(4-chlorophenyl)methyl]-8-fluoro-1-oxo-2,3-dihydro-1λ^4,5-benzothiazepin-4-one], in the test on primary human T-cells [1], the “Emax proliferation (% activation)” value is reported as 100 % activation and the EC50 worked out at 2800 nM. This compound gave an EC50 in the test with primary human T-cells [2] of 5870 nM.
Consider `CC(C)(C)n1nnc(-c2cc3c(cc2F)[S+]([O-])C[C@H](N)C(=O)N3Cc2ccc(Cl)cc2)n1` (stereo partly drawn) [Example 35, (3R)-3-amino-7-(2-tert-butyltetrazol-5-yl)-5-[(4-chlorophenyl)methyl]-8-fluoro-1-oxo-2,3-dihydro-1λ^4,5-benzothiazepin-4-one], for which, in the test with primary human T-cells [1], the “Emax proliferation (% activation)” value was found to be 125 % activation and the EC50 was determined as 1240 nM. In addition, the EC50 in the test on primary human T-cells [2] was 7130 nM.
`N[C@H]1CS(=O)(=O)c2cc(F)c(-c3ccn[nH]3)cc2N(Cc2ccc(Cl)cc2)C1=O` [Example 37, (3R)-3-amino-5-[(4-chlorophenyl)methyl]-8-fluoro-1,1-dioxo-7-(1H-pyrazol-5-yl)-2,3-dihydro-1λ^6,5-benzothiazepin-4-one]: in the test on primary human T-cells [1] (Homo sapiens, T-cell, 120 h), the Emax was found to be 57% and the EC50 worked out at 15300 nM. Besides, in the test on primary human T-cells [2], the EC50 is above 20000 nM.
For `CCc1nc(-c2cc3c(cc2F)S(=O)(=O)C[C@H](N)C(=O)N3Cc2ccc(Cl)cc2)n[nH]1` [Example 38, (3R)-3-amino-5-[(4-chlorophenyl)methyl]-7-(5-ethyl-1H-1,2,4-triazol-3-yl)-8-fluoro-1,1-dioxo-2,3-dihydro-1λ^6,5-benzothiazepin-4-one], in that order: 50%, above 20000 nM and above 20000 nM.
Regarding `N[C@H]1CS(=O)(=O)c2ccc(-c3nc(CC(F)(F)F)no3)nc2N(Cc2ccc(Cl)cc2)C1=O` [Example 39, (3R)-3-amino-5-[(4-chlorophenyl)methyl]-1,1-dioxo-7-[3-(2,2,2-trifluoroethyl)-1,2,4-oxadiazol-5-yl]-2,3-dihydropyrido[3,2-b][1,4]thiazepin-4-one], in the test with primary human T-cells [1] (Homo sapiens, T-cell, 120 h), the Emax is 161% and the EC50 came to 486 nM. Moreover, the EC50 in the test with primary human T-cells [2] was found to be 842 nM.
On to `CC(C)(F)c1nc(-c2cc3c(cc2F)S(=O)(=O)C[C@H](N)C(=O)N3Cc2ccc(Cl)cc2)no1` [Example 47, (3R)-3-amino-5-[(4-chlorophenyl)methyl]-8-fluoro-7-[5-(1-fluoro-1-methyl-ethyl)-1,2,4-oxadiazol-3-yl]-1,1-dioxo-2,3-dihydro-1λ^6,5-benzothiazepin-4-one], for which, in the test on primary human T-cells [1] (Homo sapiens, T-cell, 120 h), the Emax came out at 142% and the EC50 worked out at 561 nM. Besides, the EC50 in the test on primary human T-cells [2] turned out to be 2860 nM.
In the case of `CC(C)(C)c1cc(-c2cc3c(cc2F)S(=O)(=O)C[C@H](N)C(=O)N3Cc2ccc(Cl)cc2)on1` [Example 52, (3R)-3-amino-7-(3-tert-butylisoxazol-5-yl)-5-[(4-chlorophenyl)methyl]-8-fluoro-1,1-dioxo-2,3-dihydro-1λ^6,5-benzothiazepin-4-one], in the test on primary human T-cells [1] (Homo sapiens, T-cell, 120 h), the Emax was determined as 133% and the EC50 was 1090 nM. Also, the EC50 in the test on primary human T-cells [2] came out at 974 nM.
The matching figures for `N[C@H]1CS(=O)(=O)c2cc(F)c(-c3nnc(C4CCCCC4(F)F)o3)cc2N(Cc2ccc(OC(F)(F)F)cc2)C1=O` (stereo partly drawn) [Example 53, (3R)-3-amino-7-[5-(2,2-difluorocyclohexyl)-1,3,4-oxadiazol-2-yl]-8-fluoro-1,1-dioxo-5-[[4-(trifluoromethoxy)phenyl]methyl]-2,3-dihydro-1λ^6,5-benzothiazepin-4-one]: 243%, below 162 nM and below 162 nM.
With `N[C@H]1CS(=O)(=O)c2cc(F)c(-c3nnc(C4CCCC(F)(F)C4)o3)cc2N(Cc2ccc(OC(F)(F)F)cc2)C1=O` (stereo partly drawn) [Example 55, (3R)-3-Amino-7-[5-(3,3-difluorocyclohexyl)-1,3,4-oxadiazol-2-yl]-8-fluoro-1,1-dioxo-5-[[4-(trifluoromethoxy)phenyl]methyl]-2,3-dihydro-1λ^6,5-benzothiazepin-4-one], in the test on primary human T-cells [1] (Homo sapiens, T-cell, 120 h), the Emax was found to be 282% and the EC50 is 50.7 nM. The compound further yielded an EC50 in the test on primary human T-cells [2] of 53.2 nM.
On to `NC(c1nnc(-c2cc3c(cc2F)S(=O)(=O)C[C@H](N)C(=O)N3Cc2ccc(OC(F)(F)F)cc2)o1)C(F)(F)F` (stereo partly drawn) [Example 58, (3R)-3-amino-7-[5-(1-amino-2,2,2-trifluoro-ethyl)-1,3,4-oxadiazol-2-yl]-8-fluoro-1,1-dioxo-5-[[4-(trifluoromethoxy)phenyl]methyl]-2,3-dihydro-1λ^6,5-benzothiazepin-4-one], for which the Emax in the test on primary human T-cells [1] (Homo sapiens, T-cell, 120 h) stood at 126%. Further, the EC50 amounted to 684 nM in the test with primary human T-cells [1] (Homo sapiens, T-cell, 120 h) and 220 nM in the test on primary human T-cells [2].
Turning to `CC(C)(C#N)c1nnc(-c2cc3c(cc2F)S(=O)(=O)C[C@H](N)C(=O)N3Cc2ccc(OC(F)(F)F)cc2)o1` [Example 59], the Emax with primary human T-cells [1] (Homo sapiens, T-cell, 120 h) is 94%. For the same compound, the EC50 in the test with primary human T-cells [1] (Homo sapiens, T-cell, 120 h) came to 54.5 nM; in the test with primary human T-cells [2], 79.9 nM.
The matching figures for `Cc1nnc(-c2nnc(-c3cc4c(cc3F)S(=O)(=O)C[C@H](N)C(=O)N4Cc3ccc(OC(F)(F)F)cc3)o2)o1` [Example 60, (3R)-3-amino-8-fluoro-7-[5-(5-methyl-1,3,4-oxadiazol-2-yl)-1,3,4-oxadiazol-2-yl]-1,1-dioxo-5-[[4-(trifluoromethoxy)phenyl]methyl]-2,3-dihydro-1λ^6,5-benzothiazepin-4-one]: 110%, 320 nM and 535 nM.
For `CN[C@@H](C)C(=O)N[C@H]1CS(=O)(=O)c2cc(F)c(-c3nnc(CC(F)(F)F)o3)cc2N(Cc2ccc(OC(F)(F)F)cc2)C1=O` [Example 61, (2S)—N-[(3R)-8-fluoro-1,1,4-trioxo-7-[5-(2,2,2-trifluoroethyl)-1,3,4-oxadiazol-2-yl]-5-[[4-(trifluoromethoxy)phenyl]methyl]-2,3-dihydro-1λ^6,5-benzothiazepin-3-yl]-2-(methylamino)propanamide], in that order: 144%, 625 nM and 1910 nM.
